Assay results from ChEMBL document CHEMBL3797087, “Synthesis of novel triazole/isoxazole functionalized 7-(trifluoromethyl)pyrido[2,3-d]pyrimidine derivatives as promising anticancer and antibacterial agents” (2016).
In brackets after ≈: the same amount, converted by molar mass.

How the values were obtained:
Type in all cases: functional
A549 = experiment: Anticancer activity against human A549 cells after 48 hrs by SRB assay; settings: A549, 48 h
MDA-MB-231 = experiment: Anticancer activity against human MDA-MB-231 cells after 48 hrs by SRB assay; settings: MDA-MB-231, 48 h
[1] = Anticancer activity against human PANC1 cells after 48 hrs by SRB assay; settings: PANC-1, 48 h
HeLa = experiment: Anticancer activity against human HeLa cells after 48 hrs by SRB assay
Streptococcus pneumoniae [2] = experiment: Antibacterial activity against Streptococcus pneumoniae after 24 to 48 hrs
Klebsiella pneumoniae [3] = experiment: Antibacterial activity against Klebsiella pneumoniae after 24 to 48 hrs
Bacillus licheniformis [4] = experiment: Antibacterial activity against Bacillus licheniformis after 24 hrs by agar diffusion assay
Bacillus licheniformis [5] = experiment: Antibacterial activity against Bacillus licheniformis after 24 to 48 hrs
Streptococcus pneumoniae [6] = experiment: Antibacterial activity against Streptococcus pneumoniae after 24 hrs by agar diffusion assay
Escherichia coli [7] = experiment: Antibacterial activity against Escherichia coli after 24 to 48 hrs
Staphylococcus aureus [8] = experiment: Antibacterial activity against Staphylococcus aureus after 24 to 48 hrs
Pseudomonas aeruginosa [9] = experiment: Antibacterial activity against Pseudomonas aeruginosa after 24 hrs by agar diffusion assay
Pseudomonas aeruginosa [10] = experiment: Antibacterial activity against Pseudomonas aeruginosa after 24 to 48 hrs
Escherichia coli [11] = experiment: Antibacterial activity against Escherichia coli after 24 hrs by agar diffusion assay
Klebsiella pneumoniae [12] = experiment: Antibacterial activity against Klebsiella pneumoniae after 24 hrs by agar diffusion assay
Staphylococcus aureus [13] = experiment: Antibacterial activity against Staphylococcus aureus after 24 hrs by agar diffusion assay

GI50 (A549)	GI50 (MDA-MB-231)	GI50 (HeLa)	MIC (Streptococcus pneumoniae [2])	MIC (Bacillus licheniformis [5])	MIC (Staphylococcus aureus [8])	MIC (Pseudomonas aeruginosa [10])	Structure (SMILES)	GI50 [1]	MIC (Klebsiella pneumoniae [3])	inhibition zone (IZ) (Bacillus licheniformis [4])	inhibition zone (IZ) (Streptococcus pneumoniae [6])	MIC (Escherichia coli [7])	inhibition zone (IZ) (Pseudomonas aeruginosa [9])	inhibition zone (IZ) (Escherichia coli [11])	inhibition zone (IZ) (Klebsiella pneumoniae [12])	inhibition zone (IZ) (Staphylococcus aureus [13])
3140 nM	1010 nM	910 nM	–	–	–	–	O=c1c2ccc(C(F)(F)F)nc2nc(-c2ccccc2)n1Cc1cc(-c2cccc3ccccc23)no1	140 nM	–	–	–	–	–	–	–	–
860 nM	2210 nM	810 nM	12.5 µg/mL (≈ 26.9 µM)	12.5 µg/mL (≈ 26.9 µM)	12.5 µg/mL (≈ 26.9 µM)	12.5 µg/mL (≈ 26.9 µM)	CCCCCCCCCCn1cc(Cn2c(CC)nc3nc(C(F)(F)F)ccc3c2=O)nn1	20 nM	25 µg/mL (≈ 53.8 µM)	21 mm	28 mm	25 µg/mL (≈ 53.8 µM)	16 mm	25 mm	19 mm	15 mm
5330 nM	570 nM	950 nM	12.5 µg/mL (≈ 25.8 µM)	25 µg/mL (≈ 51.6 µM)	12.5 µg/mL (≈ 25.8 µM)	–	CCCCCCCCn1cc(COc2nc(-c3ccccc3)nc3nc(C(F)(F)F)ccc23)nn1	2660 nM	–	21 mm	26 mm	–	–	8 mm	–	22 mm
2310 nM	1050 nM	1040 nM	–	–	–	–	CCCCCCCCCCn1cc(COc2nc(-c3ccccc3)nc3nc(C(F)(F)F)ccc23)nn1	490 nM	–	8 mm	16 mm	–	–	–	–	10 mm
770 nM	1240 nM	860 nM	–	–	–	–	O=c1c2ccc(C(F)(F)F)nc2nc(-c2ccccc2)n1Cc1cn(-c2ccc([N+](=O)[O-])cc2)nn1	2550 nM	–	–	–	–	–	–	–	–
3810 nM	710 nM	1240 nM	–	–	–	–	O=c1c2ccc(C(F)(F)F)nc2ncn1Cc1cc(-c2ccc(Br)cc2)no1	1160 nM	–	–	–	–	–	–	–	–
–	–	–	–	–	–	–	CO[C@H]1/C=C/O[C@@]2(C)Oc3c(C)c(O)c4c(O)c(c(/C=N/N5CCN(C)CC5)c(O)c4c3C2=O)NC(=O)/C(C)=C\C=C\[C@H](C)[C@H](O)[C@@H](C)[C@@H](O)[C@@H](C)[C@H](OC(C)=O)[C@@H]1C [RIFAMPIN]	–	–	24 mm	25 mm	–	29 mm	27 mm	27 mm	25 mm
300 nM	140 nM	890 nM	–	–	–	–	O=c1c2ccc(C(F)(F)F)nc2ncn1Cc1cn(-c2ccc([N+](=O)[O-])cc2)nn1	1890 nM	–	–	–	–	–	–	–	–
200 nM	1100 nM	870 nM	–	–	–	–	CCCCCCCCCCn1cc(Cn2c(-c3ccco3)nc3nc(C(F)(F)F)ccc3c2=O)nn1	3180 nM	–	–	–	–	–	–	–	–
520 nM	9890 nM	870 nM	–	–	–	–	O=c1c2ccc(C(F)(F)F)nc2nc(-c2ccccc2)n1Cc1cn(CCC(F)(F)C(F)(F)C(F)(F)C(F)(F)C(F)(F)C(F)(F)F)nn1	2950 nM	–	–	–	–	–	–	–	–
2870 nM	1340 nM	1270 nM	–	–	–	–	CCCCCCCCn1cc(Cn2c(CC)nc3nc(C(F)(F)F)ccc3c2=O)nn1	3280 nM	–	8 mm	6 mm	–	7 mm	7 mm	7 mm	9 mm
4050 nM	240 nM	890 nM	–	–	–	–	COc1cc(-n2cc(COc3nc(-c4ccccc4)nc4nc(C(F)(F)F)ccc34)nn2)cc(OC)c1OC	820 nM	–	–	–	–	–	–	–	–
80 nM	42 nM	63 nM	–	–	–	–	COC(=O)Nc1nc2cc(C(=O)c3cccs3)ccc2[nH]1 [NOCODAZOLE]	29 nM	–	–	–	–	–	–	–	–
30 nM	2830 nM	930 nM	–	–	–	–	CCc1nc2nc(C(F)(F)F)ccc2c(=O)n1Cc1cn(CCC(F)(F)C(F)(F)C(F)(F)C(F)(F)C(F)(F)C(F)(F)F)nn1	730 nM	–	–	–	–	–	–	–	–
1910 nM	520 nM	1200 nM	–	–	–	–	FC(F)(F)c1ccc2c(OCc3cn(CCC(F)(F)C(F)(F)C(F)(F)C(F)(F)C(F)(F)C(F)(F)F)nn3)nc(-c3ccccc3)nc2n1	2990 nM	–	–	–	–	–	–	–	–
140 nM	650 nM	890 nM	–	–	–	–	O=C(Cn1cc(COc2nc(-c3ccccc3)nc3nc(C(F)(F)F)ccc23)nn1)Nc1ccccc1	4500 nM	–	–	–	–	–	–	–	–
1090 nM	870 nM	840 nM	–	–	–	–	O=c1c2ccc(C(F)(F)F)nc2ncn1Cc1cc(-c2ccc(Cl)cc2)no1	7080 nM	–	–	–	–	–	–	–	–
5260 nM	1700 nM	860 nM	–	–	–	–	CCc1nc2nc(C(F)(F)F)ccc2c(=O)n1Cc1cn(CC(=O)Nc2ccccc2)nn1	320 nM	–	–	–	–	–	–	–	–

Structure (SMILES)	GI50 (A549)	GI50 (MDA-MB-231)	GI50 (HeLa)	MIC (Streptococcus pneumoniae [2])	MIC (Bacillus licheniformis [5])	MIC (Staphylococcus aureus [8])	MIC (Pseudomonas aeruginosa [10])	GI50 [1]	MIC (Klebsiella pneumoniae [3])	inhibition zone (IZ) (Bacillus licheniformis [4])	inhibition zone (IZ) (Streptococcus pneumoniae [6])	MIC (Escherichia coli [7])	inhibition zone (IZ) (Pseudomonas aeruginosa [9])	inhibition zone (IZ) (Escherichia coli [11])	inhibition zone (IZ) (Klebsiella pneumoniae [12])	inhibition zone (IZ) (Staphylococcus aureus [13])
O=C(O)c1cn(C2CC2)c2cc(N3CCNCC3)c(F)cc2c1=O [CIPROFLOXACIN]	–	–	–	12.5 µg/mL (≈ 37.7 µM)	12.5 µg/mL (≈ 37.7 µM)	12.5 µg/mL (≈ 37.7 µM)	–	–	12.5 µg/mL (≈ 37.7 µM)	24 mm	23 mm	12.5 µg/mL (≈ 37.7 µM)	25 mm	–	22 mm	25 mm
